Measurements published in US5723139A, “Skin care compositions containing a polycyclic triterpene carboxylic acid and a retinoid” (Chesebrough-Pond's USA Co., Division of Conopco, Inc., priority 1996, dated 1998).
“Also recorded” adds a separate entry of the source.

Columns and labels:
[1] = system: human keratinocyte transglutaminase I (TGase I); experiment: Transglutaminase I ELISA in cultured keratinocytes, normalized to DNA content (Example 1 procedure); format: cell-based; settings: 2.5×10^-7 M, 2.5×10^-8 M and 2.5×10^-9 M, vs ethanol control
Method: Human keratinocytes, isolated from neonatal foreskin by trypsin treatment were grown in Dulbecco Modification Eagle (DME) Hams F12 (1:1) medium/10% fetal calf serum in the presence of irradiated 3T3 mouse fibroblasts for establishing dividing keratinocyte colonies. Cells were grown under the above condition until their second passage and kept frozen for future use. […] On day 7, when the cells were 80-90% confluent, they were trypsinized and plated in the serum-free medium for the various experiments.
During the process of terminal differentiation in the epidermis, a 15 nm thick layer of protein, known as the cornified envelope (CE) is formed on the inner surface of the cell periphery. […]
Keratinocytes (cultured as described above) were plated in 96 well plates at a density of 3,000 cells per well in 200 μl media. […] The absorbance of samples was read at 492 nm in the plate reader. […] TGase levels were determined by subtracting background from the readings from each treatment and determining mean±s.d. for the replicates exposed to both Ab.
The level of TGase-1 was normalized to DNA content of the cells in the same well thus eliminating variation due to differences in cell number. DNA quantitation is a particularly useful indicator of cell number, including keratinocyte cell number, because each cell has to all intents and purposes an identical genome and therefore an identical quantity of DNA. […]

[2] = system: human keratinocyte transglutaminase I (TGase I); experiment: Transglutaminase I ELISA in cultured keratinocytes, normalized to DNA content (Examples 2 and 3 procedure); format: cell-based; settings: for mean TGase/DNA × 10^5 ± s.d / effect on keratinocyte TG1 level / differentiation (in words) / activity at 0.25 µM / activity at 0.0025 µM / activity at 1 µM: 72 hours; for mean TGase/DNA × 10^5 ± s.d / activity at 0.25 µM / activity at 0.0025 µM / activity at 1 µM: n = 3; for activity at 0.25 µM / activity at 0.0025 µM / activity at 1 µM: Homo sapiens, Keratinocyte, % of control; for activity at 0.25 µM: Example 3, Table 3; for activity at 0.0025 µM: Example 2, Table 2; for effect on keratinocyte differentiation / transglutaminase I levels (in words, summary): summary of Examples 1-3
Method: Human keratinocytes, isolated from neonatal foreskin by trypsin treatment were grown in Dulbecco Modification Eagle (DME) Hams F12 (1:1) medium/10% fetal calf serum in the presence of irradiated 3T3 mouse fibroblasts for establishing dividing keratinocyte colonies. Cells were grown under the above condition until their second passage and kept frozen for future use. Frozen second passage keratinocytes were thawed and plated into the above medium and grown for five days before they were switched to a serum-free MCDB 153-based medium keratinocyte growth medium (KGM) from Clonetics Corporation, San Diego, Calif., containing 0.15 mM Ca, or keratinocyte serum-free media (KSFM) from GIBCO containing 0.09 mM Ca). On day 7, when the cells were 80-90% confluent, they were trypsinized and plated in the serum-free medium for the various experiments.
During the process of terminal differentiation in the epidermis, a 15 nm thick layer of protein, known as the cornified envelope (CE) is formed on the inner surface of the cell periphery. The CE is composed of numerous distinct proteins which have been cross-linked together by the formation of N^ε -(γ-glutamyl) lysine isodipeptide bonds catalyzed by the action of at least two different transglutaminases (TGases) expressed in the epidermis. TGase I is expressed in abundance in the differentiated layers of the epidermis, especially the granular layer, but is absent in the undifferentiated basal epidermis. Thus TGase I is a useful marker of epidermal keratinocyte differentiation with high TGase I levels indicating a more differentiated state. An ELISA based TGase I assay, using a TGase I antibody, was used to assess the state of differentiation of the cultured keratinocytes in the examples that follow.
Keratinocytes (cultured as described above) were plated in 96 well plates at a density of 3,000 cells per well in 200 μl of cell culture media. After incubation for four days, the media was changed to media containing test compounds (six replicates per test). The cells were cultured for a further 72 hours after which time the media was aspirated and the plates stored at -70° C. After the plates were removed from the freezer, the cells were further freezed fractured by freezing and thawing and then washed 3x with PBS. The cells were incubated for one hour at room temperature (R/T) with TBS/5% BSA buffer. Cells were then incubated with 100 μl of monoclonal anti-human transglutaminase (IgG) mouse antibody (primary antibody) obtained from Biomedical Technologies Inc. diluted 1:2000 in TBS/1% BSA buffer for two hours at 37° C., and then rinsed six times with wash buffer (TBS/1% BSA/0.05% Tween-20). Cells were next incubated with 100 μl of Fab fragment, peroxidase conjugated anti-mouse IgG antibody (secondary antibody) from Amersham diluted 1:4,000 in wash buffer for two hours at 37° C. and then rinsed three times with wash buffer and three times with PBS. Cells were incubated with substrate solution (4mg o-phenylene diamine and 3.3 μl 30% H2 O2 in 10 mL 0.1M citrate buffer, pH 5.0) for five minutes at R/T and in darkness (under aluminum foil). The reaction was stopped by the addition of 50 μl 4N H2SO4. The absorbance of samples was read at 492 nm in the plate reader. Out of the six replicates, four were treated with both antibodies, two were treated only with the secondary antibody (i.e., to determine the background binding of the enzyme conjugated antibody). Transglutaminase I levels were determined by subtracted background from the readings from each treatment and determining the mean s.d. for the replicates exposed to both antibodies.
The level of TGase-1 detected after treatment of the cells could be influenced by cell number, i.e., the greater the number of cells the greater the level of TGase-1 detected. The level of TGase-1 was normalized to DNA content of the cells in the same well thus eliminating variation due to differences in cell number. […]

[3] = system: skin keratinocytes; experiment: Thymidine incorporation / proliferation of skin keratinocytes; format: cell-based, human; settings: summary of Examples 1-3
[4] = Example 2, 2.5×10^-9 M retinoic acid or retinol, 10^-6 M glycyrrhizic acid
[5] = Example 3, 2.5×10^-7 M retinoic acid or retinol, 10^-6 M oleanolic acid

SMILES	effect on keratinocyte differentiation / transglutaminase level (in words) [1]	mean TGase/DNA × 10^5 ± s.d ([2]; 2.5 × 10^-7 M, Table 3)	mean TGase/DNA × 10^5 ± s.d ([2]; 2.5 × 10^-9 M, Table 2)	effect on keratinocyte TG1 level / differentiation (in words) [2, 4]	effect on keratinocyte TG1 level / differentiation (in words) [2, 5]	activity at 0.25 µM ([2]; 2.5 × 10^-7 M)	activity at 0.0025 µM ([2]; 2.5 × 10^-9 M)	effect on keratinocyte differentiation / transglutaminase I levels (in words, summary) [2]	mean TGase/DNA × 10^5 ± s.d ([2]; 10^-6 M, Table 3)	activity at 1 µM ([2]; 10^-6 M, Table 3)	mean TGase/DNA × 10^5 ± s.d ([2]; 10^-6 M, Table 2)	activity at 1 µM ([2]; 10^-6 M, Table 2)	effect on thymidine incorporation / keratinocyte proliferation (in words) [3]
CC1=C(/C=C/C(C)=C/C=C/C(C)=C/CO)C(C)(C)CCC1 [ROH, Retinol]	dose dependent	18.27 ± 3.30 × 10^5	8.29 ± 2.11 × 10^5	less effective than retinoic acid	less effective than retinoic acid	81%	68%	significantly less effective than retinoic acid at inhibiting keratinocyte differentiation	–	–	–	–	–
CC1(C)CC[C@]2(C(=O)O)CC[C@]3(C)C(=CC[C@@H]4[C@@]5(C)CC[C@H](O)C(C)(C)[C@@H]5CC[C@]43C)[C@@H]2C1 [Oleanolic Acid, Oleanolic acid]	–	–	–	–	only a very slight inhibitory effect on the keratinocyte TG1 level	–	–	–	20.95 ± 1.95 × 10^5	93%	–	–	–
CC1(C)[C@@H](O[C@H]2O[C@H](C(=O)O)[C@@H](O)[C@H](O)[C@H]2O[C@@H]2O[C@H](C(=O)O)[C@@H](O)[C@H](O)[C@H]2O)CC[C@]2(C)[C@H]3C(=O)C=C4[C@@H]5C[C@@](C)(C(=O)O)CC[C@]5(C)CC[C@@]4(C)[C@]3(C)CC[C@@H]12 [Glycyrrhizic acid]	–	–	–	no inhibitory effect on the keratinocyte TG1 level	–	–	–	–	–	–	11.98 ± 3.00 × 10^5	99%	–
CC1=C(/C=C/C(C)=C/C=C/C(C)=C/C(=O)O)C(C)(C)CCC1 [RA, Retinoic acid, reference compound]	decreased keratinocyte differentiation; also recorded: dose dependent	9.95 ± 2.74 × 10^5	4.04 ± 1.23 × 10^5	very effective at repressing keratinocyte TG1 levels	very effective at repressing keratinocyte TG1 levels	44%	33%	decreased transglutaminase I levels	–	–	–	–	increased thymidine incorporation
